# Data: patent publication US12569170B2, “Paramagnetic sodium NMR macrocyclic-based biosensors, and associated methods” (Yale University, priority 2021, dated 2026)
# Entries after “also recorded” stand apart in the source; their conditions may differ.
# How the values were obtained:
# U87 tumors = test: Sorafenib treatment of U87 GBM models monitored by ^1H-MRI and ^23Na-MRSI; type: in vivo, rat; conditions: for tumor growth: U87, 0.1 g/kg body weight daily oral gavage from day 9, imaged 6 days after, vs DMSO control
# Method: FIG. 9 depicts spatial distributions of compartmentalized ^23Na signals (Na^+b, Na^+e, Na^+i) as well as transendothelial (ΔNa^+end) and transmembrane (ΔNa^+mem) gradients in a pair of U87 tumors, one of which was treated with sorafenib, an anti-angiogenic tyrosine kinase inhibitor that targets vascular endothelial growth factor receptor (VEGFR) and platelet-derived growth factor receptor (PDGFR). Sorafenib dosage was 0.1 g/kg body weight, dissolved in dimethylsulfoxide (DMSO) for the treated animal, whereas the untreated control received an equivalent dose of pure DMSO. Daily treatment began on day 9 post-tumor-inoculation, and imaging was performed an additional 6 days after.
# Having established the utility of ^23Na-MRSI in vivo with TmDOTP^5−, additional applications of Na^+ imaging were explored, such as monitoring therapeutic efficacy or using other agents to probe different spectroscopic characteristics. A separate cohort of U87 GBM models were treated with sorafenib, an anti-angiogenic tyrosine kinase inhibitor, with some animals kept as controls. Sorafenib treatment (0.1 g/kg body weight) began on day 9 following tumor inoculation and was dissolved in dimethylsulfoxide (DMSO) to be delivered via oral gavage. […] Therefore, ^23Na-MRSI with TmDOTP^5− has potential to effectively image the efficacy of cancer drugs.
# [1] = Concentration effects of Dotarem and Gadavist on ^23Na spectra, concentric tubes phantom; type: physicochemical; conditions: 20 mM, 10 mM, 5 mM in outer compartment, tubes parallel to the magnetic field
# Method: Spectra are shown for 20 mM, 10 mM, and 5 mM, where 0 ppm corresponds to the natural, unshifted ^23Na resonance of the inner compartment to which no agent was added.
# [2] = Bulk magnetic susceptibility (BMS) contribution to chemical shift in phantoms; type: physicochemical; conditions: phantoms
# From the text: Upon translation of the present in vitro results to in vivo situations, certain confounding factors must be addressed. In the interstitial space, there are additional cations such as calcium (Ca^2+), magnesium (Mg^2+) and K^+ which will also bind to anionic contrast agents like TmDOTP^5−. However, physiologically their concentrations are low compared to Na^+. […] Additionally, there is a contribution to the chemical shift from bulk magnetic susceptibility (BMS) changes brought about by TmDOTP^5− in addition to the hyperfine shifts induced by interactions with Na^+. Experiments were performed on different DOTP^8− salts in phantoms parallel and perpendicular to the main magnetic field B0, and also spherical phantoms in which there was no BMS contribution. Only a small portion (˜2%) of the total chemical shift for TmDOTP^5− was due to BMS arising due to anisotropy of the paramagnetic susceptibility, and the remainder was the hyperfine shift.
# U87-bearing rat brain = test: In vivo ^23Na-MRSI line broadening in glioma models
# From the text: FIGS. 10C-10F illustrates images according to certain embodiments of the disclosure. […] However, the ^23Na linewidth analysis by TmDOTP^5− is confounded by its high ^23Na shiftability. This peak separation in vivo overestimates the full-width at half-maximum (FWHM) calculations and exaggerates the measured ^23Na linewidths.
# Slice 1 is most superficial, and slice 3 is the deepest. The tumor outline is depicted in white in all columns.
# This establishes GdDOTP^5−-induced ^23Na linewidth broadening as a potential surrogate marker for the altered Na^+ biodistribution within tumors. Thus, in brain tumor models, TmDOTP^5− with ^23Na-NMR can separate Na^+ in intracellular, blood, and interstitial pools, while GdDOTP^5− can distinguish Na^+ within intracellular and extracellular (i.e., blood and interstitial) pools.
# Because the majority of the present studies looked at ^23Na chemical shift, the line broadening capabilities of these paramagnetic agents were also interrogated. […] This is due to the high magnetic moment of Gd^3+ which contributes to some degree of anisotropy to the paramagnetic susceptibility. […] Crucially, this family of paramagnetic agents has allowed to insightful probing of the tumor microenvironment and drawing of significant conclusions about tumor aggressiveness based on spectroscopic analysis.
# [3] = Comparison of ^23Na shiftability and broadening potential of DOTP agents; type: physicochemical
compound,measurement,setting,value
CNC(=O)c1cc(Oc2ccc(NC(=O)Nc3ccc(Cl)c(C(F)(F)F)c3)cc2)ccn1 [sorafenib],tumor growth,U87 tumors,slow tumor growth compared to untreated animals
same,tumor growth,U87 tumors; listed as Sorafenib,retarded the growth rate of the tumor
same,"region of alterations in Na^+ distribution (elevated Na b and ΔNa^+end, decreased Na^+e and ΔNa^+mem)","U87 tumors; U87, treated vs untreated tumor, ^23Na-MRSI with TmDOTP^5−",confined to a smaller region for the treated tumor
"Gd^3+2-[4,7,10-tris(carboxymethyl)-1,4,7,10-tetrazacyclododec-1-yl]acetate [Dotarem]",^23Na shiftability,[1],shiftability stronger than the other Gd^3+-based agents with macrocyclic chelates
O=P([O-])([O-])CN1CCN(CP(=O)([O-])[O-])CCN(CP(=O)([O-])[O-])CCN(CP(=O)([O-])[O-])CC1.[Gd+3] [GdDOTP^5−],BMS contribution to chemical shift,[2],dominated by BMS effect
same,^23Na line broadening in tumor versus normal tissue,"U87-bearing rat brain; glioma models, after agent infusion",most prominent within in the tumor; also recorded: considerable linewidth broadening within gliomas; also recorded: larger within the tumor as well compared to healthy tissue
same,correlation of tumoral line broadening with increases in ΔNa^+end and decreases in ΔNa^+mem,"U87-bearing rat brain; same rat, gradients from TmDOTP^5− shifts",correlated well
same,"broadening potential (sensitivity of linewidth to agent concentration), words",[3],high broadening potentials; also recorded: comparable broadening potential as TmDOTP^5−
same,"shiftability (sensitivity of ^23Na chemical shift to agent concentration), words",[3],without inducing ^23Na shift differences between compartments; also recorded: smaller shiftability
"O=C([O-])CN1CCN(CC(=O)[O-])CCN([C@H](CO)[C@H](O)CO)CCN(CC(=O)[O-])CC1.[Gd+3] [Gadavist, Gd^3+2,2′,2″-(10-((2R,3S)-1,3,4-trihydroxybutan-2-yl)-1,4,7,10-tetraazacyclododecane-1,4,7-triyl)triacetate]",^23Na shiftability,[1],shiftability stronger than the other Gd^3+-based agents with macrocyclic chelates
